Data as given in patent US20080261994A1, “CYCLOPROPANE COMPOUNDS AND PHARMACEUTICAL USE THEREOF” (Japan Tobacco Inc., priority 2003, published 2008).
pIC50: −log10 of the molar value. Where two headings read alike, the source gives them in different places.

Legend:
Assay type in all cases: biochemical
aggrecanase-1 = biological target: T1, aggrecanase-1 (Homo sapiens, UniProt O75173); test: Aggrecanase-1 inhibitory action (Particle Assay, GAG release from aggrecan-containing polyacrylamide particles)
T1 sequence (O75173 213-837): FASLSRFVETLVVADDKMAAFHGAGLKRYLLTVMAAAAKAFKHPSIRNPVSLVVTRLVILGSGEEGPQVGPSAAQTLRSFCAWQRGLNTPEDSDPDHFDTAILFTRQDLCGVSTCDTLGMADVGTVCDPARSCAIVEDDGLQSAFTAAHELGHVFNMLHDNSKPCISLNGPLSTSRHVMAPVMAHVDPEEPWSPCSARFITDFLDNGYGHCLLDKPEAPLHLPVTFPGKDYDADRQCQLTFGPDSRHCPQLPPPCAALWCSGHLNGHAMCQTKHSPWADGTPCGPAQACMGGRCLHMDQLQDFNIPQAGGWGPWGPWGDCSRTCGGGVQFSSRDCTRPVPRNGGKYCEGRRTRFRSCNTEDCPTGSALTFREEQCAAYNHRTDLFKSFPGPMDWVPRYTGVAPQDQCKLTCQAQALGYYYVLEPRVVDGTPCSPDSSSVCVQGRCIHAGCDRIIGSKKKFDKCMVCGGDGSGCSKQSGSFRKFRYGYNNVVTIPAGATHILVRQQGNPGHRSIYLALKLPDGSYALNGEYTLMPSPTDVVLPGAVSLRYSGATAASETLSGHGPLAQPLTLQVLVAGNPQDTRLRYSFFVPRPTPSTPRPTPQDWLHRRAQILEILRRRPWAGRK
Outline: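 Readout was dimethylmethylene blue absorbance (595 nm) of glycosaminoglycan liberated into supernatant, calibrated with whale chondroitin sulfate. Substrate was aggrecan in polyacrylamide particles, digested 15 h at 37° C in Tris-HCl; TC50 (μM) derived from inhibition relative to no-enzyme and no-inhibitor controls.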

MMP-1 = biological target: T2, MMP-1 (Homo sapiens, UniProt P03956); test: MMP-1 inhibitory action (Type I collagen Activity Measurement kit, FITC-labeled collagen type I)
T2 sequence (P03956 100-469): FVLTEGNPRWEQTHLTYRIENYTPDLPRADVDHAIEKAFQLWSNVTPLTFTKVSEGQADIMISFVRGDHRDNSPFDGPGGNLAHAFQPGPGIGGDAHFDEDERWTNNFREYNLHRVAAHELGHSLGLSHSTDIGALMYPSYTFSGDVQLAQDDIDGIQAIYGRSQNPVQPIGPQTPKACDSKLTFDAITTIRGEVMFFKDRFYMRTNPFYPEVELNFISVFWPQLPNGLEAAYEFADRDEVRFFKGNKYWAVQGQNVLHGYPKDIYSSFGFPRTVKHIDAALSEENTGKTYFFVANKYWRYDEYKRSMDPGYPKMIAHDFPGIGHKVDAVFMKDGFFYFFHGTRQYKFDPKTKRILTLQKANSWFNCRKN

Recombinant Human MMP-13 = biological target: T3, Recombinant Human MMP-13 (Homo sapiens, UniProt P45452); test: MMP-13 inhibitory activity (MMP-13 specific fluorescent substrate with quencher)
T3 construct: purchased R&D systems 511-MM
Outline: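 IC50 (μM) derived from % inhibition, normalised to wells without enzyme and without inhibitor, fluorescence read at 325/405 nm. Enzyme and compound preceded addition of the quenched 7-MCA…DPA substrate; Tris-HCl buffer, 25 °C for 1 h, acetic-acid stop.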

[1] = aggrecanase-1 inhibitory action, read-out: IC50 AG1 (Experimental Example 1)
[2] = MMP-1 inhibitory action, FITC-labeled collagen type I, 37° C. for 3 hr, read-out: IC50 MMP1 (Experimental Example 2)
[3] = Recombinant Human MMP-13, fluorescent substrate, 25° C. for 1 h, read-out: IC50 MMP13 (Experimental Example 3)
[4] = Experimental Example 1, read-out: IC50 AG1
[5] = Experimental Example 2, read-out: IC50 MMP1
[6] = Experimental Example 3, read-out: IC50 MMP13

SMILES | pIC50 (aggrecanase-1; [1]) | pIC50 (MMP-1; [2]) | pIC50 (Recombinant Human MMP-13; [3]) | pIC50 (aggrecanase-1; [4]) | pIC50 (MMP-1; [5]) | pIC50 (Recombinant Human MMP-13; [6])
C[C@@H]1[C@H](c2ccccc2)[C@]1(NS(=O)(=O)N1CCN(c2ccc(C(F)(F)F)cn2)CC1)C(=O)O [Example 2-5, (1S,2R,3R)-2-methyl-3-phenyl-1-[4-(5-trifluoromethyl-pyridin-2-yl)-piperazine-1-sulfonylamino]-cyclopropanecarboxylic acid] | > 6.00 | ≤ 6.00 | > 7.00 |  |  | 
CCOC(=O)c1cccc(-c2ccc(S(=O)(=O)N[C@@]3(C(=O)O)C[C@]3(C)c3ccccc3)s2)c1 [Example 2-478] |  |  |  | ≤ 6.00 | ≤ 5.00 | ≤ 5.00
O=C(NCCO)c1cccc(C2CC2(NS(=O)(=O)c2ccc(-c3ccc(Cl)cc3)s2)C(=O)O)c1 (stereo not drawn) [Example 2-75] | > 6.00 | ≤ 5.00 | > 6.00 |  |  | 
COC(=O)c1ccccc1C1CC1(NS(=O)(=O)c1ccc(-c2ccc(Cl)cc2)s1)C(=O)O (stereo not drawn) [Example 2-205] | > 7.00 | ≤ 5.00 | > 6.00 |  |  | 
O=C(OCCCc1cccc(C2CC2(NS(=O)(=O)c2ccc(-c3cc(C(F)(F)F)on3)s2)C(=O)O)c1)N1CCOCC1 (stereo not drawn) [Example 2-239] | > 7.00 | ≤ 6.00 | > 7.00 |  |  | 
O=C(O)C1(NS(=O)(=O)c2ccc(-c3ccc(O)cc3)s2)CC1c1ccccc1 (stereo not drawn) [Example 2-65] | > 6.00 | ≤ 5.00 | > 6.00 |  |  | 
CC1[C@H](c2ccccc2)[C@]1(NS(=O)(=O)c1ccc(-c2ccc(Cl)c(CO)c2)s1)C(=O)O (stereo partly drawn) [Example 2-565] |  |  |  | > 7.00 | > 6.00 | > 7.00
O=C(NO)C1(NS(=O)(=O)c2ccc(OCc3ccc(Cl)cc3Cl)cc2)C2CCCc3ccccc3C21 (stereo not drawn) [Example 2-390] |  |  |  | > 6.00 | ≤ 5.00 | ≤ 6.00
Cc1cnn(-c2ccc(S(=O)(=O)N[C@@]3(C(=O)O)C[C@@H]3c3ccccc3)cn2)c1 [Example 2-481] |  |  |  | ≤ 6.00 | ≤ 5.00 | > 7.00
O=C(O)C1(NS(=O)(=O)c2ccc(-c3ccc(Cl)cc3)s2)CC1(CCCN1CCOCC1)c1ccccc1 (stereo not drawn) [Example 2-249] | > 7.00 | ≤ 5.00 | > 6.00 |  |  | 
O=C(O)C1(NS(=O)(=O)c2ccc(S(=O)(=O)c3ccccc3)s2)CC1c1ccccc1 (stereo not drawn) [Example 2-81] | ≤ 5.00 | ≤ 5.00 | ≤ 5.00 |  |  | 
CC1[C@](C)(c2ccccc2)[C@]1(NS(=O)(=O)c1ccc(-c2cc(C(F)(F)F)on2)s1)C(=O)O (stereo partly drawn) [Example 2-623] |  |  |  | > 7.00 | > 6.00 | > 7.00
CC(C)OCCNC(=O)OCC1(c2ccccc2)CC1(NS(=O)(=O)c1ccc(-c2cc(C(F)(F)F)on2)s1)C(=O)O (stereo not drawn) [Example 2-308] |  |  |  | > 6.00 | ≤ 6.00 | > 6.00
CN(C)C(=O)OCCC1(c2ccccc2)CC1(NS(=O)(=O)c1ccc(-c2ccc(Cl)cc2)s1)C(=O)O (stereo not drawn) [Example 2-303] |  |  |  | > 7.00 | ≤ 6.00 | > 7.00
CN1CCN(C(=O)Cc2ccccc2C2CC2(NS(=O)(=O)c2ccc(-c3ccc(Cl)cc3)s2)C(=O)O)CC1 (stereo not drawn) [Example 2-195] | > 6.00 | ≤ 5.00 | > 6.00 |  |  | 
CC(C)NC(=O)c1ccc(S(=O)(=O)NC2(C(=O)O)CC2c2ccccc2)s1 (stereo not drawn) [Example 2-94] | ≤ 5.00 | ≤ 5.00 | ≤ 5.00 |  |  | 
CC1C(c2ccccc2)C1(NS(=O)(=O)c1ccc(Cc2ccccc2)s1)C(=O)O (stereo not drawn) [Example 2-508] |  |  |  | ≤ 6.00 | ≤ 6.00 | ≤ 6.00
O=C(NCCc1cccc(C2CC2(NS(=O)(=O)c2ccc(-c3cc(C(F)(F)F)on3)s2)C(=O)O)c1)N1CCOCC1 (stereo not drawn) [Example 2-259] | > 7.00 | ≤ 6.00 | > 7.00 |  |  | 
COCc1cc(-c2ccc(S(=O)(=O)N[C@@]3(C(=O)O)C[C@]3(C)c3ccccc3)s2)no1 [Example 2-403] |  |  |  | > 6.00 | > 6.00 | > 7.00
CC(=O)N1CCC2C(c3ccccc31)C2(NS(=O)(=O)c1ccc(-c2ccc(Cl)cc2)s1)C(=O)O (stereo not drawn) [Example 2-439] |  |  |  | > 7.00 | ≤ 6.00 | > 7.00
